Data on 11 molecules can be found in patent publication US7081349B1 (The General Hospital Corporation, priority 1994, dated 2006).

Test [1] concerns the target T1, Xenopus high-affinity melatonin receptor (Xenopus laevis, UniProt P49219).
T1 sequence (P49219 1-420): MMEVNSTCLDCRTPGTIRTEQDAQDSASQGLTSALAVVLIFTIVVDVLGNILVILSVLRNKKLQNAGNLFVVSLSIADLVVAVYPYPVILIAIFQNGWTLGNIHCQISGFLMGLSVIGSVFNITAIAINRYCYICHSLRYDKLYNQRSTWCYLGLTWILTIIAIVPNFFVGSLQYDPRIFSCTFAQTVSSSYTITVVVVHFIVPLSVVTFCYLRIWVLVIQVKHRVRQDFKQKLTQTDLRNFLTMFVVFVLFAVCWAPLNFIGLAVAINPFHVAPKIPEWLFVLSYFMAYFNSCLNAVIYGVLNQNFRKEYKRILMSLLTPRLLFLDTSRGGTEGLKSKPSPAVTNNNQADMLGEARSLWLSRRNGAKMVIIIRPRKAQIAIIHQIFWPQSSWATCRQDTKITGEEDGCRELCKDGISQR
The test is described as follows: 125I-melatonin saturation and competition binding, whole COS-7 cells transiently expressing Xenopus receptor cDNA. Set-up: expressed in transfected cells; host or cells: COS-7 cells, transient, pcDNAI. As for the experimental part: Three days after transfection, medium was removed, the culture dishes were washed with PBS, and the cells were harvested. The cells were then pelleted (2500 rpm; 10 min, 4° C.) and stored at −80° C. Whole cell binding studies were performed by thawing the cells and resuspending them in binding buffer (50 mM Tris-HCl, pH 7.4, with 5 mM MgCl2) at a concentration of 456 μg protein 1 ml. […] Protein determinations were performed using the Pierce BCA Protein Assay (The Pierce Chemical Co., Rockford, Ill.). Binding data were analyzed by computer using the LIGAND Program of Munson and Rodbard ((1980) supra).
(§1) The Bmax value using the whole cell binding assay was 67±7 fmol/mg of protein.

The target in test [2] is T2, sheep high-affinity melatonin 1a receptor (Ovis aries, UniProt P48040).
T2 construct: expressed in transfected cells; host or cells: COS-7 cells, transient, pcDNAI, DEAE-dextran
The test is described as follows: 125I-melatonin saturation and competition binding, whole COS-7 cells transfected with sheep receptor cDNA. From the text: (§2) Data shown are representative of three experiments. […] The data shown are representative of at least three experiments.
For ligand binding studies, the sheep receptor cDNA (SEQ ID NO:3) in pcDNAI was introduced into COS-7 cells using the DEAE-dextran method (Cullen, B. R. Methods Enzymol. (1987) 152:684-704). Approximately two to three days after transfection, cell culture medium was removed, the cultures dishes were washed with PBS, and the cells were harvested.
The cells were then pelleted (2500 rpm; 10 min, 4° C.) and stored at −80° C. Whole cell binding studies were performed by thawing the cells and resuspending them in binding buffer (50 mM Tris-HCl, pH 7.4, with 5 mM MgCl2) at a concentration of 200-500 μg protein/ml. The cell suspension was incubated with ^125I-Mel with or without drugs in a total reaction volume of 0.2 ml binding buffer; the suspension as incubated in a shaker bath for 1.5 hr at 25° C. All determinations were done in either duplicate or triplicate. Protein measurements were performed using the Pierce BCA Protein Assay. Binding data were analyzed by computer using the LIGAND Program of Munson and Rodbard (1980).

Another test concerns the target T3, human Mel-1b receptor (Homo sapiens, UniProt P49286).
T3 construct: expressed in transfected cells; host or cells: COS-1 cells, transient, pcDNA3; crude membrane homogenates
T3 sequence (P49286 1-362): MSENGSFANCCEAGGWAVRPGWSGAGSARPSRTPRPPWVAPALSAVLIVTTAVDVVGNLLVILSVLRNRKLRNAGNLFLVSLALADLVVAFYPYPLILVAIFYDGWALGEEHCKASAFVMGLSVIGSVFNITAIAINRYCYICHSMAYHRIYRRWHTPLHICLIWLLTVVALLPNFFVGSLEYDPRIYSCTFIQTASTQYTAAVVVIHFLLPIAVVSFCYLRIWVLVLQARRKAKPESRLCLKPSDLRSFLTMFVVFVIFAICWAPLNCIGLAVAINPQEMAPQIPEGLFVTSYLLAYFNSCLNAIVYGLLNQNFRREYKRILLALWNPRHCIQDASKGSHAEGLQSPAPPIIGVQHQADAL
The test is described as follows: 125I-Mel saturation and competition binding, membranes of COS-1 cells transfected with human Mel-1b receptor cDNA. To be noted: for Ki: 200 pM 125I-Mel, mean ± SE of 3-5 experiments; for Ratio (Mel-1a/Mel-1b): ratio of Ki values; for inhibition of specific 125I-Mel binding: micromolar concentrations, human Mel-1b. As for the experimental part:
Inset: Scatchard plot of saturation data. […] Data shown are representative of five experiments.
(§3) The data shown are mean values of three to five experiments for each drug.
Binding and pharmacological properties of the human Mel-1b receptor were examined by transiently expressing the receptor cDNA in COS-1 cells.
(§4) Expression studies were performed as follows. COS-1 and NIH 3T3 cells were grown as monolayers in Dulbeccols modified Eagle's medium (DMEM) supplemented with 10% fetal calf serum, penicillin (50 U/ml), and streptomycin (50 μg/ml), in 5% CO2 at 37° C. […] Three days after transfection, medium was removed, and the dishes were washed with PBS. The cells were harvested in Hank's balanced salt solution and centrifuged (1400×g; 10 min, 4° C.). The resultant pellets were stored at −80° C. Crude membrane homogenates were prepared by thawing the pellets on ice and resuspending them in TME buffer (pH 7.4) consisting of 50 mM Tris base, 12.5 mM MgCl2, 1 mM EDTA, and supplemented with 10 μg/ml aprotinin and leupeptin, and 100 μM phenylmethylsulfonylfluoride. The cells were then homogenized using a dounce homogenizer and centrifuged (45,000×g; 15 min at 4° C.). The resulting pellet was resuspended with a dounce homogenizer in TME and frozen at […] in aliquots.
(§5) Incubations were initiated by the addition of the membrane preparation and were conducted at 37° C. for 60 min. […] All determinations were done in either duplicate or triplicate.
(§6) Protein measurements were performed by the method of Bradford (Bradford, M. M. (1976) Anal. Biochem. 72, 248-254), using bovine serum albumin as the standard.
(§7) For comparison, binding and pharmacology of COS-1 cells transiently expressing the human Mel-1a receptor were assessed in parallel.

A further test deals with T4, human Mel-1a receptor (Homo sapiens, UniProt P48039).
T4 construct: expressed in transfected cells; host or cells: COS-1 cells, transient, pcDNA3; crude membrane homogenates
The test is described as follows: 125I-Mel saturation and competition binding, membranes of COS-1 cells transfected with human Mel-1a receptor cDNA. To be noted: 100 pM 125I-Mel, mean ± SE of 3-5 experiments. As for the experimental part: as §3, §4, §5, §6, §7

The next test has as its system human SCN. To be noted: quantitative 125I-Mel autoradiography, Reppert et al. 1988; cited from earlier work.
The target in test [3] is T5, human high-affinity melatonin 1a receptor (Homo sapiens, UniProt P48039).
T5 construct: expressed in transfected cells; host or cells: COS-7 cells, transient, pcDNAI
The experiment in a line: 125I-melatonin saturation and competition binding, COS-7 cells transfected with complete human Mel-1a receptor cDNA. Particulars: 100 pM 125I-Mel, one-site model.
Source text: as §2

In test [4] the test system is mock-transfected COS-7 cells. The test is described as follows: 125I-melatonin binding in mock-transfected COS-7 cells.
Source text: as §1

For test [5], the target named is T1, Xenopus high-affinity melatonin receptor. The experiment in a line: Inhibition of forskolin-stimulated cAMP accumulation in CHO cells stably transfected with Xenopus receptor cDNA. It is filed as cell-based. More on the design: expressed in transfected cells. As for the experimental part:
The 100% value is the mean cAMP value induced with 10 μM forskolin.
Transformed CHO cells were plated on 35 mm culture dishes. After 48 hours, the cells were washed twice with Ham's F-12 (Life Technologies, Bethesda, Md.). […] Following treatment, the medium was aspirated and 1 ml of 50 mM acetic acid was added to the culture dish. The cells were collected, transferred to an Eppendorf tube, boiled for 5 min, and centrifuged (13,750 rpm for 15 min). The supernatant was collected and assayed for cAMP. All determinations were performed in triplicate. Cyclic AMP levels were determined in duplicate by radioimmunoassay (New England Nuclear, Boston, Mass.).
In general terms: cAMP levels reflect the balance of adenylyl cyclase and phosphodiesterase activity.

The target of the next test is T6, sheep Mel-1a receptor (Ovis aries, UniProt P48040).
T6 construct: expressed in transfected cells
The test is described as follows: Inhibition of forskolin-stimulated cAMP accumulation in NIH 3T3 cells stably transfected with sheep receptor cDNA. Format: cell-based. To be noted: for effect of pertussis toxin pretreatment on melatonin inhibition of forskolin-stimulated cAMP: PTX 100 ng/ml, 18 hours, 1 μM melatonin, 10 μM forskolin. As for the experimental part:
The 100% value is the mean cAMP value induced with 10 μM forskolin. […] Cells were preincubated with either vehicle or pertussis toxin for 18 hours (PTX: 100 ng/ml; pertussis toxin was purchased from List, Campbell, Calif.). […] Data are the mean plus standard deviation for 3 plates for each treatment.
Transformed NIH 3T3 cells were plated on 35 mm dishes. After forty-eight hours, the cells were washed twice with DMEM, and then incubated with or without drugs (diluted in DMEM) for 10 min at 37° C. At the end of treatment, the medium was aspirated and 1 ml of 50 mM acetic acid was added. The cells were collected, transferred to an Eppendorf tube, boiled for 5 min, and centrifuged (13,750 rpm for 15 min). The supernatant was collected and assayed for cAMP. All determinations were done in triplicate. Cyclic AMP levels were determined in duplicate by radioimmunoassay by standard techniques.

In the next test the target is mouse Mel-1a receptor (Mus musculus, UniProt Q61184, F119L/I348L/K349P/L29M/L347F). Particulars: COS-7 cells; comparable to sheep and human Mel-1a receptors.
Setting [6] is: 100 pM 125I-melatonin, COS-7 cells, Xenopus receptor, representative of three experiments, read-out: Ki, competition for 125I-melatonin binding.
Where [7] appears, read: 100 pM 125I-Mel, COS-7 cells, sheep receptor, one-site model, read-out: Ki, competition for 125I-Mel binding.

Read-outs that look alike come from different tables or passages of the source.

T2 sequence (P48040 whole entry): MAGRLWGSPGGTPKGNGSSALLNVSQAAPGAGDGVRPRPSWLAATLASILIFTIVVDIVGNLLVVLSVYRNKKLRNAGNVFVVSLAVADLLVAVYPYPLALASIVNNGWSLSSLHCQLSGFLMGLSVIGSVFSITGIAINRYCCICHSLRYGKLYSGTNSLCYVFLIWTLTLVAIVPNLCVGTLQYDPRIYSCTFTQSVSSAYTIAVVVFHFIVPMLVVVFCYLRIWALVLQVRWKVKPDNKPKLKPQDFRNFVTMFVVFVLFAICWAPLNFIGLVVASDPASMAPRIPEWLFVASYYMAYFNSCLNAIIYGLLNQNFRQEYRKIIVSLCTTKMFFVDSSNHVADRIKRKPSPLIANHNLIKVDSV
T6 sequence (P48040 whole entry): as above
T5 sequence (P48039 whole entry): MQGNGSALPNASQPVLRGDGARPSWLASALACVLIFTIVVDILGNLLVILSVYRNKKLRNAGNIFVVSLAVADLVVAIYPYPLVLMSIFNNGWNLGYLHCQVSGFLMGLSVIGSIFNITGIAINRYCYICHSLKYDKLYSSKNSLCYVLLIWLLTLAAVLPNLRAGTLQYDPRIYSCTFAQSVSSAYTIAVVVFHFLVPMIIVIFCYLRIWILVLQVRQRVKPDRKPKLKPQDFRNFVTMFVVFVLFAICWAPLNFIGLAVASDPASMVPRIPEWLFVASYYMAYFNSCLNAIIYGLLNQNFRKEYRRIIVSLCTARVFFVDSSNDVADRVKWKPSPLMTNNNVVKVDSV
T4 sequence (P48039 whole entry): as above
Sequence of mouse Mel-1a receptor (Q61184 whole entry L29M/F119L/L347F/I348L/K349P): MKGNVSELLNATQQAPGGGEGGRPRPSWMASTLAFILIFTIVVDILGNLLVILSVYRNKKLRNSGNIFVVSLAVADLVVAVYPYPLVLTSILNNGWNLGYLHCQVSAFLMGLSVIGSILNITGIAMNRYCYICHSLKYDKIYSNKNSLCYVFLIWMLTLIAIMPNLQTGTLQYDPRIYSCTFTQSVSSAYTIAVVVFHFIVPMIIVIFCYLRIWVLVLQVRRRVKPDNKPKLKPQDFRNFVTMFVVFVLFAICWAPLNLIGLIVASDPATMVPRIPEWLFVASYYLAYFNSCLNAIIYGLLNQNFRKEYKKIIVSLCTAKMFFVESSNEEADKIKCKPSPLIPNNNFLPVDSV

With `COc1ccc2[nH]c(I)c(CCNC(C)=O)c2c1` [2-iodomelatonin], the Ki in [1] is 0.11 nM; in [2] it was 0.037 nM.

As to `COc1ccc2[nH]c(-c3ccccc3)c(CCNC(C)=O)c2c1` [2-phenylmelatonin], on human Mel-1b receptor, the Ki stood at 0.26 ± 0.06 nM and the “Ratio (Mel-1a/Mel-1b)” value was found to be 0.8. For the same molecule, at human Mel-1a receptor, the Ki turned out to be 0.21 ± 0.06 nM.

Take `NCCc1c[nH]c2ccc(O)cc12` [5-HT, 5-hydroxytryptamine]: the affinity entry in the test on human SCN is reported as “very low affinity”. Besides, at human Mel-1b receptor, the “inhibition of specific 125I-Mel binding” value was “did not inhibit”. Moreover, the Ki was above 100000 nM in [1] (setting [6]), above 100000 nM in test [2] (setting [7]), above 100000 nM in test [3] and above 10000 nM at human Mel-1a receptor.

For `COc1cc2c(CCNC(C)=O)c[nH]c2cc1Cl` [6-chloromelatonin], in the test on human SCN, the affinity result is on record as “high affinity”. In addition, the values for the Ki in test [1] (setting [6]) and in [2] (setting [7]) were 3 nM and 0.25 nM, respectively.

For `COc1cc2c(CCNC(C)=O)c[nH]c2cc1O` [6-hydroxymelatonin], the Ki in [1] (setting [6]) is 20 nM; in [2] (setting [7]), 3 nM; in test [3] it was 2 nM.

With `CC(=O)NCCc1c[nH]c2ccc(O)cc12` [NAS, N-acetyl-5-hydroxytryptamine], the Ki on human Mel-1b receptor turned out to be 595 ± 127 nM; in test [1] (setting [6]), 2000 nM; in test [2] (setting [7]) it was 140 nM; in test [3] it was 170 nM; on human Mel-1a receptor, 986 ± 137 nM. Also, the “Ratio (Mel-1a/Mel-1b)” value at human Mel-1b receptor was 1.6.

In general, Kd refers to the concentration at which binding is half-saturated. Consider `COc1ccc2[nH]c(I)c(CCNC(C)=O)c2c1` [^125I-melatonin, 2-[^125I]-iodomelatonin], for which the dissociation constant (Kd) in test [1] (saturation 5 to 1280 pM, COS-7 cells, Xenopus receptor, n=3 experiments, read-out: Kd of 125I-melatonin (Scatchard analysis)) amounted to 0.063 nM. Besides, the Ki in test [2] (FIG. 14a inset, COS-7 cells, sheep receptor, representative experiment, read-out: Ki value for the sheep receptor from Scatchard plot of saturation data) is 0.036 nM.

As for `COc1ccc2[nH]c([125I])c(CCNC(C)=O)c2c1` [^125I-melatonin, 2-[^125I]-iodomelatonin], the “specific binding of 125I-melatonin” value in test [4] is recorded as “No specific binding”.

As usually defined, the IC50 is the concentration at which inhibition is half-maximal. A lower IC50 goes with higher potency. For the molecule `COc1ccc2[nH]cc(CCNC(C)=O)c2c1` [melatonin], the inhibition at 0.01 µM in test [5] (CHO, read-out: maximal inhibition of the mean forskolin-stimulated cAMP concentration) was determined as 68%. This molecule gave a 50% inhibitory concentration (IC50) in test [5] (manual curve fitting of FIG. 12, 10 μM forskolin, CHO cells, Xenopus receptor) of around 0.8 nM. Further, the “inhibition of forskolin-stimulated cAMP increase in vector-only cells” value in test [5] (melatonin 1×10^−6 M, CHO cells stably transfected with vector lacking the Xenopus cDNA) was “did not inhibit”. Also, the “effect on basal cAMP levels” value is reported as “not to alter basal cAMP levels” in [5] (melatonin alone 1×10^−6 M, stably transfected CHO cells) and “did not alter basal cAMP levels” at sheep Mel-1a receptor (stably transfected NIH 3T3 lines, sheep receptor). In addition, the affinity entry in the test with human SCN is listed as “high affinity”. For the same molecule, the “inhibition of forskolin-stimulated cAMP accumulation in vector-only cells” value against sheep Mel-1a receptor (melatonin 1 μM, NIH 3T3 cells with pcDNAI NEO lacking the sheep receptor cDNA) was “did not inhibit”. Besides, the Ki in test [1] (setting [6]) was 1.3 nM. For the same molecule, the binding affinity entry at mouse Mel-1a receptor is “high affinity”.

As for `COc1cc2nc(N3CCN(C(=O)c4ccco4)CC3)nc(N)c2cc1OC` [prazosin], the “inhibition of specific 125I-Mel binding” value on human Mel-1b receptor is “did not inhibit”.

Regarding Pertussis toxin, the figures for the “effect of pertussis toxin pretreatment on melatonin inhibition of forskolin-stimulated cAMP” value on sheep Mel-1a receptor and at sheep Mel-1a receptor (listed as pertussis toxin) were “completely abolished” and “blocks”, respectively.
